The source of these data is patent US20260297070A1, “CYCLIC [COMPOUND LEFT OUT] WRN INHIBITORS” (Nimbus Wadjet, Inc., priority 2023, published 2026).

Each structure is given as a SMILES string. Where only a bound is given, the exact number is not on record here.

This experiment addresses T1, human Werner helicase (WRN-BV08, Uniprot Q14191, amino acids 517-1235 with L1074F point mutation) (Homo sapiens, UniProt Q14191, L1074F).
T1 construct: Uniprot Q14191, amino acids 517-1235 with L1074F point mutation; TEV-cleavable 8×His (C, cleaved yes); made in house; host or cells: Sf9 insect cells (baculovirus)
In words: WRN (BV08) ADP-Glo Assay. It counts as biochemical. The following applies: 0.15 nM WRN, 5 μM ATP, 0.1 nM DNA duplex, 15 min preincubation, 60 min at 25° C., pH 7.5, 1% DMSO; read-out: ADP-Glo_hWRN_IC50. Put shortly: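 Percent inhibition was normalised to DMSO (max) and 20 μM NSC-617145 (min) controls from ADP-Glo luminescence, and IC50 values came from a four-parameter fit. The reaction ran 60 min at 25 °C with 0.15 nM WRN, 5 μM ATP and 0.1 nM duplex DNA.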
On the technique in general: ADP-Glo first removes unused ATP, then detects ADP through luciferase.

T1 sequence (Q14191 with tags, fused parts or gaps L1074F limits assumed): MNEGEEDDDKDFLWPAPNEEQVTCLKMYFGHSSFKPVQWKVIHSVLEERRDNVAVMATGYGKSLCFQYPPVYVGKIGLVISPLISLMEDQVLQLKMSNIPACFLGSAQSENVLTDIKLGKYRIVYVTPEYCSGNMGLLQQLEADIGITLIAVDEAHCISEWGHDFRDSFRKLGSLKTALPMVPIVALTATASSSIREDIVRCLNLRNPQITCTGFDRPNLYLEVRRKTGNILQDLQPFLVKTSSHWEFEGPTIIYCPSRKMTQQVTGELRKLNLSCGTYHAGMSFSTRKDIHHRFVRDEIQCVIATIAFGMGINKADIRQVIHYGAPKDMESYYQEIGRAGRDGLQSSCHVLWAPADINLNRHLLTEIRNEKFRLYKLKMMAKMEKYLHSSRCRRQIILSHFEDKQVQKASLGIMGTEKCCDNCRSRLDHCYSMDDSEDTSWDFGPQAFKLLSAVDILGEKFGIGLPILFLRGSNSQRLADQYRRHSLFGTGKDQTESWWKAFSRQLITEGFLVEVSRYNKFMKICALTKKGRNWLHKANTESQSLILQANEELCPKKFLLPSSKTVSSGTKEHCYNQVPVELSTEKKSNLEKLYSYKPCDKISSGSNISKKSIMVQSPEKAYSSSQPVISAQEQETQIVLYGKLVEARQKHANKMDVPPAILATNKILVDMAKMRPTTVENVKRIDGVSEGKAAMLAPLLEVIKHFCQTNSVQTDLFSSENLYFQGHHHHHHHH

Consider `COc1cc(CN(C(=O)C2CNc3cc(-c4ccc(F)cc4)ccc32)[C@@H]2C=CS(=O)(=O)C2)ccn1` (stereo partly shown) [I-53, N-(1,1-dioxido-2,3-dihydrothiophen-3-yl)-6-(4-fluorophenyl)-N-((2-methoxypyridin-4-yl)methyl)indoline-3-carboxamide], for which the IC50 was below 0.5 µM. The result for `CC(C)(N)c1ccc(CN(C(=O)Cc2ccc(S(F)(F)(F)(F)F)cc2)C2C=CS(=O)(=O)C2)cc1` (stereo not shown) [I-700, N-{[4-(2-aminopropan-2-yl)phenyl]methyl}-N-(1,1-dioxo-2,3-dihydro-1lambda6-thiophen-3-yl)-2-[4-(pentafluoro-lambda6-sulfanyl)phenyl]acetamide] reads 5 to 10 µM; that for `COc1cc(CN(C(=O)C2Cc3cc(-n4cccc4C)ccc32)C2C=CS(=O)(=O)C2)ccn1` (stereo not shown) [I-132, N-(1,1-dioxo-2,3-dihydro-1lambda6-thiophen-3-yl)-N-[(2-methoxypyridin-4-yl)methyl]-3-(2-methyl-1H-pyrrol-1-yl)bicyclo[4.2.0]octa-1,3,5-triene-7-carboxamide], 0.5 to 5 µM. The result for `O=C(C1CC(c2ccc(F)cc2)C1)N(Cc1ccncc1)C1C=CS(=O)(=O)C1` (stereo not shown) [I-614, N-(1,1-dioxo-2,3-dihydro-1lambda6-thiophen-3-yl)-3-(4-fluorophenyl)-N-[(pyridin-4-yl)methyl]cyclobutane-1-carboxamide] reads above 50 µM; that for `CN(C)C(=O)C(C(=O)N(Cc1ccncc1)C1C=CS(=O)(=O)C1)c1ccc(-c2ccc(F)cc2)cc1` (single isomer, unassigned) [I-375, (2R**)-N′-[(3R*)-1,1-dioxo-2,3-dihydro-1lambda6-thiophen-3-yl]-2-{4′-fluoro-[1,1′-biphenyl]-4-yl}-N,N-dimethyl-N′-[(pyridin-4-yl)methyl]propanediamide], above 50 µM. The value for `O=C(Cc1ccc(-n2cccc2)cc1)N(Cc1ccc2[nH]ccc2c1)C1C=CS(=O)(=O)C1` (stereo not shown) [I-498, N-(1,1-dioxo-2,3-dihydro-1lambda6-thiophen-3-yl)-N-[(1H-indol-5-yl)methyl]-2-[4-(1H-pyrrol-1-yl)phenyl]acetamide] was above 50 µM; that for `COc1cc(CN(C(=O)C(C(=O)N(C)C)c2ccc(-c3ccc(F)c(F)c3)cc2F)C2C=CS(=O)(=O)C2)ccn1` (single isomer, unassigned) [I-577, (2R**)-N-[(3R*)-1,1-dioxo-2,3-dihydro-1lambda6-thiophen-3-yl]-N-[(2-methoxypyridin-4-yl)methyl]-N′,N′-dimethyl-2-{3,3′,4′-trifluoro-[1,1′-biphenyl]-4-yl}propanediamide] was below 0.5 µM.

Regarding `Cc1nc(CN(C(=O)Cc2ccc(S(F)(F)(F)(F)F)cc2)C2C=CS(=O)(=O)C2)sc1C` (stereo not shown) [I-612, N-[(4,5-dimethyl-1,3-thiazol-2-yl)methyl]-N-(1,1-dioxo-2,3-dihydro-1lambda6-thiophen-3-yl)-2-[4-(pentafluoro-lambda6-sulfanyl)phenyl]acetamide], the IC50 is below 0.5 µM. The value for `CC(C)(O)c1cc(CN(C(=O)C2CNc3cc(-c4ccc(F)cc4)ccc32)C2C=CS(=O)(=O)C2)ccn1` (stereo not shown) [I-98, N-(1,1-dioxo-2,3-dihydro-1lambda6-thiophen-3-yl)-6-(4-fluorophenyl)-N-{[2-(2-hydroxypropan-2-yl)pyridin-4-yl]methyl}-2,3-dihydro-1H-indole-3-carboxamide] was 0.5 to 5 µM; that for `O=C(Cc1ccc(S(F)(F)(F)(F)F)cc1)N(Cc1cc(C2CC2)no1)C1C=CS(=O)(=O)C1` (stereo not shown) [I-624, N-[(3-cyclopropyl-1,2-oxazol-5-yl)methyl]-N-(1,1-dioxo-2,3-dihydro-1lambda6-thiophen-3-yl)-2-[4-(pentafluoro-lambda6-sulfanyl)phenyl]acetamide] was 0.5 to 5 µM. The value for `COc1cc(CN(C(=O)C(OC)c2ccc(S(F)(F)(F)(F)F)cc2)C2C=CS(=O)(=O)C2)ccn1` (stereo not shown) [I-92, N-(1,1-dioxo-2,3-dihydro-1lambda6-thiophen-3-yl)-2-methoxy-N-[(2-methoxypyridin-4-yl)methyl]-2-[4-(pentafluoro-lambda6-sulfanyl)phenyl]acetamide] was 0.5 to 5 µM. The result for `COc1cc(-c2ccc(F)cc2)ccc1CC(=O)N(Cc1ccncc1)C1C=CS(=O)(=O)C1` (stereo not shown) [I-345, N-(1,1-dioxo-2,3-dihydro-1lambda6-thiophen-3-yl)-2-{4′-fluoro-3-methoxy-[1,1′-biphenyl]-4-yl}-N-[(pyridin-4-yl)methyl]acetamide] reads 10 to 50 µM; that for `O=C(C1Cc2ccc(-n3cccc3)cc2C1)N(Cc1ccncc1)C1C=CS(=O)(=O)C1` (stereo not shown) [I-422, N-(1,1-dioxo-2,3-dihydro-1lambda6-thiophen-3-yl)-N-[(pyridin-4-yl)methyl]-5-(1H-pyrrol-1-yl)-2,3-dihydro-1H-indene-2-carboxamide], above 50 µM. Regarding `COc1cc(CN(C(=O)C(OC)c2ccc(C(F)(F)F)cc2)C2C=CS(=O)(=O)C2)ccn1` (stereo not shown) [I-246, N-(1,1-dioxo-2,3-dihydro-1lambda6-thiophen-3-yl)-2-methoxy-N-[(2-methoxypyridin-4-yl)methyl]-2-[4-(trifluoromethyl)phenyl]acetamide], the IC50 is 5 to 10 µM. Turning to `O=C(CCc1c[nH]c2cc(Br)ccc12)N(Cc1ccncc1)C1C=CS(=O)(=O)C1` (stereo not shown) [I-304, 3-(6-bromo-1H-indol-3-yl)-N-(1,1-dioxo-2,3-dihydro-1lambda6-thiophen-3-yl)-N-[(pyridin-4-yl)methyl]propanamide], the IC50 lay in the range of 10 to 50 µM. Take `CC(C)(O)c1cc(CN(C(=O)C(c2ccc(-c3ccc(F)c(F)c3)cc2F)n2cccn2)[C@@H]2C=CS(=O)(=O)C2)ccn1` (single isomer, unassigned) [I-682]: the IC50 was below 0.5 µM. The value for `CC(C)(O)c1cc(CN(C(=O)Cn2cc3cc(C(F)(F)F)ccc3n2)C2C=CS(=O)(=O)C2)ccn1` (single isomer, unassigned) [I-676] was below 0.5 µM. In the case of `Cc1csc(CN(C(=O)Cc2ccc(-n3cccc3)cc2)C2C=CS(=O)(=O)C2)n1` (stereo not shown) [I-189, N-(1,1-dioxo-2,3-dihydro-1lambda6-thiophen-3-yl)-N-[(4-methyl-1,3-thiazol-2-yl)methyl]-2-[4-(1H-pyrrol-1-yl)phenyl]acetamide], the IC50 fell in the range of 0.5 to 5 µM. On to `CNC(=O)C(C(=O)N(Cc1ccnc(OC)c1)[C@@H]1C=CS(=O)(=O)C1)c1ccc(-c2ccc(F)c(F)c2)cc1F` (stereo partly drawn) [I-688, N′-[(3R)-1,1-dioxo-2,3-dihydro-1lambda6-thiophen-3-yl]-N′-[(2-methoxypyridin-4-yl)methyl]-N-methyl-2-{3,3′,4′-trifluoro-[1,1′-biphenyl]-4-yl}propanediamide], for which the IC50 was below 0.5 µM. The value for `CN(C)C(=O)C(C(=O)N(Cc1ccncc1)C1C=CS(=O)(=O)C1)c1ccc(Br)cc1` (stereo not shown) [I-474, 2-(4-bromophenyl)-N′-(1,1-dioxo-2,3-dihydro-1lambda6-thiophen-3-yl)-N,N-dimethyl-N′-[(pyridin-4-yl)methyl]propanediamide] was above 50 µM. The result for `O=C(Cc1ccc(C(F)(F)F)nc1)N(Cc1ccncc1)C1C=CS(=O)(=O)C1` (stereo not shown) [I-367, N-(1,1-dioxo-2,3-dihydro-1lambda6-thiophen-3-yl)-N-[(pyridin-4-yl)methyl]-2-[6-(trifluoromethyl)pyridin-3-yl]acetamide] reads 10 to 50 µM; that for `O=C(Cc1ccc(-n2cccc2)cc1)N(Cc1nc2cnccc2s1)C1C=CS(=O)(=O)C1` (stereo not shown) [I-165, N-(1,1-dioxo-2,3-dihydro-1lambda6-thiophen-3-yl)-2-[4-(1H-pyrrol-1-yl)phenyl]-N-({[1,3]thiazolo[4,5-c]pyridin-2-yl}methyl)acetamide], 0.5 to 5 µM.

As for `COc1cc(CN(C(=O)Cc2ccc(-c3ccc(F)cc3)cn2)C2C=CS(=O)(=O)C2)ccn1` (stereo not shown) [I-175, N-(1,1-dioxo-2,3-dihydro-1lambda6-thiophen-3-yl)-2-[5-(4-fluorophenyl)pyridin-2-yl]-N-[(2-methoxypyridin-4-yl)methyl]acetamide], the IC50 fell in the range of 0.5 to 5 µM. The value for `O=C([C@H]1C[C@@H](c2ccccc2)C1)N(Cc1ccncc1)C1C=CS(=O)(=O)C1` (stereo partly shown) [I-611, (1s,3s)-N-(1,1-dioxo-2,3-dihydro-1lambda6-thiophen-3-yl)-3-phenyl-N-[(pyridin-4-yl)methyl]cyclobutane-1-carboxamide] was above 50 µM. The value for `COc1ccc2[nH]c(CC(=O)N(Cc3ccncc3)C3C=CS(=O)(=O)C3)cc2c1` (stereo not shown) [I-412, N-(1,1-dioxo-2,3-dihydro-1lambda6-thiophen-3-yl)-2-(5-methoxy-1H-indol-2-yl)-N-[(pyridin-4-yl)methyl]acetamide] was above 50 µM; that for `CC(=O)N1CCN(C(=O)C(C(=O)N(Cc2ccncc2)C2C=CS(=O)(=O)C2)c2ccc(-c3ccc(F)cc3)cc2)CC1` (stereo not shown) [I-667, 3-(4-acetylpiperazin-1-yl)-N-(1,1-dioxo-2,3-dihydro-1lambda6-thiophen-3-yl)-2-{4′-fluoro-[1,1′-biphenyl]-4-yl}-3-oxo-N-[(pyridin-4-yl)methyl]propanamide] was 0.5 to 5 µM. In the case of `COc1cc(CN(C(=O)C(OC2COC2)c2ccc(-c3ccc(F)c(F)c3)cc2F)[C@@H]2C=CS(=O)(=O)C2)ccn1` (single isomer, unassigned) [I-740, (2R*)-N-[(3R)-1,1-dioxo-2,3-dihydro-1lambda6-thiophen-3-yl]-N-[(2-methoxypyridin-4-yl)methyl]-2-(oxetan-3-yloxy)-2-{3,3′,4′-trifluoro-[1,1′-biphenyl]-4-yl}acetamide], the IC50 lay within 0.5 to 5 µM. The result for `O=C(Cc1ccc(S(F)(F)(F)(F)F)cc1)N(Cc1noc(C2CC2)n1)C1C=CS(=O)(=O)C1` (stereo not shown) [I-644, N-[(5-cyclopropyl-1,2,4-oxadiazol-3-yl)methyl]-N-(1,1-dioxo-2,3-dihydro-1lambda6-thiophen-3-yl)-2-[4-(pentafluoro-lambda6-sulfanyl)phenyl]acetamide] reads 0.5 to 5 µM.
